Data on eight compounds can be found in patent US10905120B2, “ABA receptor agonists that modulate transpiration” (The Regents of the University of California, priority 2016, dated 2021).

Molecules are shown by their SMILES. Values after ≈ are worked out from the molar mass of the structure shown. Where two headings read alike, the source gives them in different places.

Assay [1] addresses T1, PYR1^I110V mutant (Arabidopsis thaliana, UniProt O49686, I110V).
T1 construct: made in house
As to the kind of experiment: Phosphatase inhibition assay with PYR1 I110V mutant. In kind it is biochemical. On the procedure: (§1) Without intending to be bound by theory, subtle changes in the binding pockets of PYR1/PYL2 proteins can dictate the orientation of pyrabactin and contribute towards its selectivity towards PYR1 vs PYL2. […] Cyanabactin's activity was tested with the PYR1^I110V and the reciprocal PYL2^V114I mutants to provide possible insights into its selectivity for PYR1 vs PYL2.
(§2) Recombinant PYR1^I110V and PYL2^V114I proteins were prepared using a previously described protocol previously (Peterson Peterson, F. C. et al., “Structural Basis for Selective Activation of ABA Receptors,” Nat. Struct. Mol. Biol. 2010, 17 (99), 1109-1113) and tested in absorbance based phosphatase inhibition assay using p-nitrophenol phosphate as substrate as previously described.

The subject of assay [2] is Arabidopsis thaliana seeds. The experiment in a line: Germination assay. It is filed as in vivo. The following applies: Minimal Inhibitory Concentration, 3 d in darkness after 4 d stratification. On the procedure: Germination experiments were performed with Arabidopsis thaliana seeds of wildtype Col0, Ler, or mutant backgrounds.
Seeds were sterilized by 30 sec incubation in 70% ethanol solution followed by a 5 min […] (while vigorously shaking) in a bleach-Tween solution. Afterwards, the sterilizing solutions were removed, and five washes were performed with sterile distilled water. To enhance complete removal of the solutions between the different steps, short centrifuge spins were performed. Finally, the now surface-sterilized seeds were re-suspended in an aseptic 0.1% agar solution to simplify distribution over multiwall plates. One drop of the solution contained on average 20-30 seeds.
In the multiwell plates, seeds were plated onto 0.7% agar Murashige amd Skoog (MS) plant growth medium containing one-half MS salts and 0.5% sucrose containing different concentrations of ABA, quinabactin, or the compound of interest. After 4 d of stratification at 4° C., the plates were transferred to a growth chamber in darkness and allowed to germinate for 3 d before germination was evaluated. The results are shown above in Table 1 and FIGS. 3A and 3B.

The target in assay [3] is T2, PYL2^V114I mutant (Arabidopsis thaliana, UniProt O80992, V114I).
T2 construct: made in house
The experiment in a line: Phosphatase inhibition assay with PYL2 V114I mutant. It is filed as biochemical. On the procedure: as §1, §2

The target of another assay is T3, PYR1 (Arabidopsis thaliana, UniProt O49686).
T3 sequence (O49686 1-191): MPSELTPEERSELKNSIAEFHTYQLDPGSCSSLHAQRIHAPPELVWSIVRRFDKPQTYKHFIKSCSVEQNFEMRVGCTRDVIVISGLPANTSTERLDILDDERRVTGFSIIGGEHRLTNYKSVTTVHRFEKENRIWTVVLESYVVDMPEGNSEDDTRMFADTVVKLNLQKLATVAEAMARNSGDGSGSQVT
T3 sequence (Q9CAJ0 23-511 partner): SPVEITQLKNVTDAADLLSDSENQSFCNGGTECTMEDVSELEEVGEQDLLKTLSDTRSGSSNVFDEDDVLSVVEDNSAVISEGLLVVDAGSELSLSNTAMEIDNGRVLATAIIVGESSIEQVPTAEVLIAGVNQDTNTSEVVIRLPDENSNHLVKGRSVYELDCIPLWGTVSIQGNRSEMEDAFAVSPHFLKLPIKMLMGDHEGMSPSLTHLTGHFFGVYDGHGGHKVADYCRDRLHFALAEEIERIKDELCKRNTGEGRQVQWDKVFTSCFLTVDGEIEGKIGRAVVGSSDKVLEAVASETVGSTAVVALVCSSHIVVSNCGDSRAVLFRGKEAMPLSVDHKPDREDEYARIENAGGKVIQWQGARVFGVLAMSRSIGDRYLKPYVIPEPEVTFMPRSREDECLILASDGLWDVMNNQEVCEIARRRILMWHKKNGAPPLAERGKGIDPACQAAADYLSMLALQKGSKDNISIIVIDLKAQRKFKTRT
As to the kind of experiment: PP2C inhibition assay, recombinant PYR1 receptor. In kind it is biochemical. On the procedure:
(§3) Reactions were started by adding 40 μL of a reaction solution containing 25 mM 4-nitrophenyl phosphate in assay buffer, after which absorbance measurements were immediately collected using a 405 nm on Wallac plate reader. Reactions contained 100 nM PP2C and 200 nM PYR/PYL proteins. […] The dose response data was fitted to a log (inhibitor) vs response-(variable slope) model using non-linear regression to infer the IC50 values using Graph Pad Prism 6.0.

The target of another assay is T4, PYL2 (Arabidopsis thaliana, UniProt O80992).
T4 sequence (O80992 1-190): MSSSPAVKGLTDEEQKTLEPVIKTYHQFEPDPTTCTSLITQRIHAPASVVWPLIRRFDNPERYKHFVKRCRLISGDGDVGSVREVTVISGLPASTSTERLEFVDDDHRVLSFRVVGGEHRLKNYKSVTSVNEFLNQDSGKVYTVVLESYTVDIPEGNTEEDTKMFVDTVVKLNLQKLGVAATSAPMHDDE
T4 sequence (Q9CAJ0 23-511 partner): T3 sequence (Q9CAJ0 23-511 partner)
As to the kind of experiment: PP2C inhibition assay, recombinant PYL2 receptor. It is filed as biochemical. The protocol: as §3

For the next assay, the system named is adult Arabidopsis plants. As to the kind of experiment: Thermal imaging assay of sprayed adult plants. In kind it is in vivo. Conditions: sprayed at 50 uM dose on adult Arabidopsis plants; compared with quinabactin and ABA at the same dose. From the text:
Molecules that elicit ABA-like effects in vivo typically close guard cells, which arrests transpirational water loss, resulting in less efficient cooling of the leaf surface and a concomitant increase in leaf surface temperature. Infrared thermography has recently emerged as an attractive, noninvasive technique to evaluate plant leaf surface temperature.
For the adult plants used for thermal imaging, seeds were sterilized as described in Example 3. Afterwards, the seeds were spread onto 0.7% agar MS plant growth medium containing one-half MS salts and 0.5% sucrose. After 4 d of stratification at 4° C., these plates were transferred to a growth chamber in light and allowed to germinate and grow for 7 d. The seedlings then were transferred into soil, and plants of 3-4 wk old were used for thermal imaging. Before thermal imaging, topical spraying of the plants was performed with a water solution containing an active agent (50 μM ABA, quinabactin, or a test compound of interest), 0.5% DMSO, and 0.02% polyalkyleneoxide modified heptamethyltrisiloxane surfactant (Silwet-77). Thermal images were collected just before spraying, 24 h after treatment, and 48 h after treatment. Treated plants were compared to mock-treated plants that had been sprayed with water containing 0.5% DMSO and 0.02% Silwet-77.
Thermal images were collected at 16 h after treatment. Thermal images were quantified using the Flir tools software version 5.2.15161.1001 by measuring the average leaf temperature of 5-6 leaves per plant. Average temperatures were calculated for 10 replicate plants (in 5 pots) per treatment. Statistical comparisons between the treated and the mock-treated plants were performed using pairwise t-tests. In the graphs represented in FIG. 1B, error bars represent the standard error of mean, asterisks symbols indicate statistical significance, and * indicates p≤0.05, ** for p≤0.01, *** for p≤0.001.

The target in assay [4] is T1, PYR1^I110V mutant. The following applies: cited from earlier work.
For assay [5], the target named is T2, PYL2^V114I mutant. Conditions: cited from earlier work.
[6] abbreviates: recombinant mutant receptor, p-nitrophenol phosphate substrate.
Where [7] appears, read: recombinant receptor 200 nM, PP2C 100 nM, 4-nitrophenyl phosphate substrate, absorbance 405 nm, read-out: IC50 PYR1.
Setting [8] is: recombinant receptor 200 nM, PP2C 100 nM, 4-nitrophenyl phosphate substrate, absorbance 405 nm, read-out: IC50 PYL2.

T2 sequence (O80992 whole entry V114I, one chain of several): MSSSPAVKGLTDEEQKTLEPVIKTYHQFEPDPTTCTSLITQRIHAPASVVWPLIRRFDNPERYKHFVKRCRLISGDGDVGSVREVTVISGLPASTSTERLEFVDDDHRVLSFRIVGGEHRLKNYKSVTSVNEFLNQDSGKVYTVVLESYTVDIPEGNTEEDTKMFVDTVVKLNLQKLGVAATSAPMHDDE
T1 sequence (O49686 whole entry I110V, one chain of several): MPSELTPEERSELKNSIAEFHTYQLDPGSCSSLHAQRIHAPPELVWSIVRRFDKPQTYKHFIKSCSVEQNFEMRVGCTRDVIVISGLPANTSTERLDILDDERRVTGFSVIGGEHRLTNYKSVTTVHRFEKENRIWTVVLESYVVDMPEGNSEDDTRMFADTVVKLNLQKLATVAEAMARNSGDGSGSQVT

In the case of `Cc1ccc(CS(=O)(=O)Nc2ccc(C#N)c(C3CC3)c2)cc1` [Ligand Q27, N-(4-Cyano-3-cyclopropylphenyl)-1-(4-methylphenyl)methanesulfonamide], the “fold less active in PYR1^I110V mutant as compared to WT PYR1” value at PYR1^I110V mutant [1] (ratio of IC50s) is given as “approximately 9 fold”. In addition, the IC50 at PYR1^I110V mutant [1] (setting [6]) turned out to be 787 nM; on PYL2^V114I mutant [3] (setting [6]), 981 nM; at PYR1 (setting [7]), 87 nM; on PYL2 (setting [8]) it was 3270 nM. In assay [2], the “MIC (μM) Germination” value was found to be 5 µM (≈ 1.63 µg/mL). Moreover, at PYL2^V114I mutant [3] (ratio of IC50s), the “fold more active in PYL2^V114I mutant as compared to WT PYL2” value stood at 3.3 fold. Further, the “increase of leaf surface temperature” value with adult Arabidopsis plants was “increase the leaf surface temperature significantly”.
For the compound `CCCc1cc(NS(=O)(=O)Cc2ccc(C)cc2)ccc1C#N` [Ligand Q31, N-(4-Cyano-3-propylphenyl)-1-(4-methylphenyl)methanesulfonamide], the “MIC (μM) Germination” value in assay [2] worked out at 10 µM (≈ 3.28 µg/mL). Besides, the IC50 came to 100 ± 0.4 nM at PYR1 (setting [7]) and 2910 ± 270 nM at PYL2 (setting [8]). In the assay with adult Arabidopsis plants, the “increase of leaf surface temperature” value is “to a lesser extent”.
The corresponding values for `CCOc1cc(NS(=O)(=O)Cc2ccc(C)cc2)ccc1C#N` [Ligand Q26, N-(4-Cyano-3-ethoxyphenyl)-1-(4-methylphenyl)methanesulfonamide] are 10 µM (≈ 3.3 µg/mL), 112 ± 15 nM, 7460 ± 469 nM and “increase the leaf surface temperature significantly”.
Turning to `CCc1cc(NS(=O)(=O)Cc2ccc(C)cc2)cc(C)c1C#N` [Ligand Q30, N-(4-Cyano-3-ethyl-5-methylphenyl)-1-(4-methylphenyl)methanesulfonamide], in assay [2], the “MIC (μM) Germination” value came to 10 µM (≈ 3.28 µg/mL). Moreover, the figures for the IC50 on PYR1 (setting [7]) and on PYL2 (setting [8]) were 72 ± 15 nM and 969 ± 77 nM, respectively. In the assay on adult Arabidopsis plants, the “increase of leaf surface temperature” value is listed as “increase the leaf surface temperature significantly”.
Consider `CC1=CC(=O)CC(C)(C)[C@@]1(O)/C=C/C(C)=C\C(=O)O` [ABA, Abscisic acid, reference compound], for which, on PYR1^I110V mutant [4], the “responsiveness of PYR1^I110V mutant as compared to wild-type PYR1” value is listed as “retained responsiveness”. In addition, the “responsiveness of PYL2^V114I mutant as compared to WT PYL2” value on PYL2^V114I mutant [5] is recorded as “retained responsiveness”. The “MIC (μM) Germination” value in assay [2] turned out to be 1 µM (≈ 0.264 µg/mL). The IC50 at PYR1 stood at 111 ± 3.8 nM; at PYL2, 39 ± 2.3 nM.
As for `CCCc1cc(NS(=O)(=O)Cc2ccc(C)cc2)cc(C)c1C#N` [Ligand Q32, N-(4-Cyano-3-methyl-5-propylphenyl)-1-(4-methylphenyl)methanesulfonamide], the “MIC (μM) Germination” value in assay [2] was 10 µM (≈ 3.42 µg/mL). The results for the concentration for half-maximal inhibition (IC50) at PYR1 (setting [7]) and on PYL2 (setting [8]) were 220 ± 18 nM and 1610 ± 23 nM, respectively. The “increase of leaf surface temperature” value in the assay with adult Arabidopsis plants is “to a lesser extent”.
The corresponding values for `CCc1cc(NS(=O)(=O)Cc2ccc(C)cc2)ccc1C#N` [Ligand Q29, N-(4-Cyano-3-ethylphenyl)-1-(4-methylphenyl)methanesulfonamide] are 5 µM (≈ 1.57 µg/mL), 48 ± 0.3 nM, 2700 ± 64 nM and “to a lesser extent”.
For the compound `O=S(=O)(NCc1ccccn1)c1ccc(Br)c2ccccc12` [pyrabactin], at PYR1^I110V mutant [4], the “responsiveness of PYR1^I110V mutant as compared to wild-type PYR1” value was “dramatically loses pyrabactin responsiveness”. Besides, at PYL2^V114I mutant [5], the “responsiveness of PYL2^V114I mutant as compared to WT PYL2” value was “gains pyrabactin responsiveness”.
